In US10183917B2, “Tricyclic compounds and uses thereof in medicine” (Sunshine Lake Pharma Co., Ltd., priority 2015, dated 2019):
pEC50: −log10 of the molar value.

Assays:
[1] = biological target: nuclear receptor FXR recombinant protein (Homo sapiens (Human), UniProt Q96RI1); test: TR-FRET Farnesoid X Receptor Coactivator Assay; type: biochemical; conditions: Fluorescein-SRC2-2, Tb anti-GST antibody, 1 h room temperature
Description: Example 36: TR-FRET Farnesoid X Receptor Coactivator Assay
Purchasing invitrogen PV4833 kits.
First, the required amount of the compound was weighed and dissolved in 100% DMSO at the maximum concentration of 3000 μM. The solution at the maximum concentration was diluted by 3-fold serial dilution in DMSO to get 10 concentrations;
Second, the above prepared solutions of different concentrations were diluted to 100-fold with a buffer supplied with the kit, followed by mixing and then 10 μL of the diluted solution was added to a 384 well plate;
Third, nuclear receptor FXR recombinant protein was diluted with a buffer to give a concentration of 4×, and 5 μL of the diluent was added to the 384 well plate of second step;
Fourth, Fluorescein-SRC2-2 and Tb anti-GST antibody were diluted with a buffer to give a concentration of 4× respectively. Then two reagents were mixed together, and 10 μL of the mixture was added to the 384 well plate of third step;
Finally, the solution of the 384 well above was mixed uniformly by centrifuging, and then incubated at room temperature for 1 h. Then the TR-FRET Endpoint was used for measuring the solution at wavelengths of 520 nm, 495 nm and 337 nm. EC50 values were calculated according to the measured value of ER=520 nm/495 nm.

[2] = Pharmacokinetics test in SD rats (iv and po); type: in vivo
Description: Example 37: Pharmacokinetics Test
Experimental animals: six healthy adult male SD rats (purchased from Hunan Slack King of Laboratory Animal Co. Ltd.) were divided into two groups, three rats in each group, and the two grops were given intravenous injection and oral administration respectively.
Drug preparation: a quantity of a compound of the present invention was weighed, and 5% DMSO, 10% Kolliphor HS15 and 85% saline (0.9%) were added to give target concentrations of the compound solution.
Administration and sample collection: animals were fasting for 12 h until administered, eating 3 h after the administration. Hind legs of SD rats of one group were given intravenous injection (IV, 1 mg/kg) and SD rats of the other group were given oral administration (PO, 5 mg/kg) respectively. Then blood was collected in the rat tail vein at the time point 0, 0.083, 0.25, 0.5, 1, 2, 4, 6, 8, 24 h respectively, and the blood volume was about 200-400 μL/time points. After the collection of whole blood at each time point, the colleted blood was set in K2EDTA anticoagulant tube, and the tube was placed in the incubator with ice packs. All samples were centrifuged for 5 min at 4° C. at 4600 r/min within 15 min. Plasma was separated and colleted. The concentrations of different compounds in the plasma of the rats after adminstration were measured using LC/MS/MS method, and the pharmacokinetic parameters were calculated according to the curve of the drug concentration-time.
Pharmacokinetic properties of the compounds of the present invention were tested by the experiment above, and the pharmacokinetic parameters were shown in Table 3.

[3] = male, SD, rat, in vivo, iv, 1 mg/kg
[4] = male, SD, rat, in vivo, po, 5 mg/kg

Chain of nuclear receptor FXR recombinant protein (Q96RI1 258-486, other chains not shown): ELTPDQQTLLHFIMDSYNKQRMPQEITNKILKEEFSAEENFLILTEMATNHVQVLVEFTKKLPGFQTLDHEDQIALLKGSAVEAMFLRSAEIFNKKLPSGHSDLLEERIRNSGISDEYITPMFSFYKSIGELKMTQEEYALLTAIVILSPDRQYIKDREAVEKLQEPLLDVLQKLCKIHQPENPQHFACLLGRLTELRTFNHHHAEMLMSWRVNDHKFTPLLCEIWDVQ

**Q.** With `O=C(O)c1ccc2c(c1)Oc1ccc(OCc3c(-c4c(Cl)cccc4Cl)noc3C3CC3)nc1CCC2` [Example 31, 3-((5-cyclopropyl-3-(2,6-dichlorophenyl)isoxazol-4-yl)methoxy)-6,7-dihydro-5H-benzo[7,8]oxocino[3,2-b]pyridine-10-carboxylic acid] as the compound, how does the pEC50 [1] read?
**A.** 7.25

**Q.** What does the source list for `O=C(O)c1ccc2c(c1)Oc1ccc(OCc3c(-c4c(Cl)cccc4Cl)noc3C3CC3)cc1S(=O)(=O)C2` [Example 5, 8-((5-cyclopropyl-3-(2,6-dichlorophenyl)isoxazol-4-yl)methoxy)-11H-dibenzo[b,f][1,4]oxathiepine-3-carboxylic acid-10,10-dioxide]?
**A.** pEC50 [1]: 8.22; F ([2]; male, SD, rat, in vivo): 62.6%; AUC(0-inf) [2, 3]: 941 ng·h/mL; AUC(0-t) [2, 3]: 926 ng·h/mL; Cmax [2, 3]: 2420 ng/mL; MRT inf [2, 3]: 45.6 min; Tmax [2, 3]: 4.8 min; Vd [2, 3]: 0.82 L/kg; clearance [2, 3]: 18 mL/min/kg; half-life [2, 3]: 93.6 min; AUC(0-inf) [2, 4]: 3350 ng·h/mL; AUC(0-t) [2, 4]: 2900 ng·h/mL; Cmax [2, 4]: 1300 ng/mL; MRT inf [2, 4]: 514 min; Tmax [2, 4]: 19.8 min; half-life [2, 4]: 702 min

**Q.** With `O=C(O)c1ccc2c(c1)Oc1ccc(OCc3c(-c4c(Cl)cccc4Cl)noc3C3CC3)cc1CC2` [Example 1, 8-((5-cyclopropyl-3-(2,6-dichlorophenyl)isoxazol-4-yl)methoxy)-10,11-dihydrodibenzo[b,f]oxepine-3-carboxylic acid] as the compound, how does the pEC50 [1] read?
**A.** 7.74

**Q.** With `O=C(O)c1ccc2c(c1)S(=O)(=O)c1ccc(OCc3c(-c4c(Cl)cccc4Cl)noc3C3CC3)cc1CC2` [Example 11, 8-((5-cyclopropyl-3-(2,6-dichlorophenyl)isoxazol-4-yl)methoxy)-10,11-dihydrodibenzo[b,f]thiepine-3-carboxylic acid-5,5-dioxide] as the compound, how does the pEC50 [1] read?
**A.** 7.25

**Q.** With `O=C(O)c1cnc2c(c1)Oc1cnc(OCc3c(-c4c(Cl)cccc4Cl)noc3C3CC3)cc1CC2` [Example 33, 8-((5-cyclopropyl-3-(2,6-dichlorophenyl)isoxazol-4-yl)methoxy)-10,11-dihydrooxepino[3,2-b:7,6-c′]dipyridine-3-carboxylic acid] as the compound, how does the pEC50 [1] read?
**A.** 7.74

**Q.** With `CS(=O)(=O)NC(=O)c1ccc2c(c1)Oc1ccc(OCc3c(-c4c(Cl)cccc4Cl)noc3C3CC3)nc1CC2` [Example 19, 2-((5-cyclopropyl-3-(2,6-dichlorophenyl)isoxazol-4-yl)methoxy)-N-(methylsulfonyl)-10,11-dihydrobenzo[6,7]oxepino[3,2-b]pyridine-7-carboxamide] as the compound, how does the pEC50 [1] read?
**A.** 8.22

**Q.** With `O=C(O)c1ccc2c(c1)Oc1ccc(OCc3c(-c4c(Cl)cccc4Cl)noc3C3CC3)cc1[S+]([O-])C2` (stereo not drawn) [Example 7, 8-((5-cyclopropyl-3-(2,6-dichlorophenyl)isoxazol-4-yl)methoxy)-11H-dibenzo [b,f][1,4]oxathiepine-3-carboxylic acid-10-oxide] as the compound, how does the pEC50 [1] read?
**A.** 7.82

**Q.** With `O=C(O)c1ccc2c(c1)Oc1ccc(OCc3c(-c4c(Cl)cccc4Cl)noc3C3CC3)nc1CC2` [Example 3, 2-((5-cyclopropyl-3-(2,6-dichlorophenyl)isoxazol-4-yl)methoxy)-10,11-dihydrobenzo[6,7]oxepino[3,2-b]pyridine-7-carboxylic acid] as the compound, how does the pEC50 [1] read?
**A.** 7.43

**Q.** What does the source list for `O=C(O)c1ccc2c(c1)Oc1cnc(OCc3c(-c4c(Cl)cccc4Cl)noc3C3CC3)cc1CC2` [Example 4, 3-((5-cyclopropyl-3-(2,6-dichlorophenyl)isoxazol-4-yl)methoxy)-5,6-dihydrobenzo[6,7]oxepino[2,3-c]pyridine-9-carboxylic acid]?
**A.** pEC50 [1]: 7.34; F ([2]; male, SD, rat, in vivo): 44.7%; AUC(0-inf) [2, 3]: 878 ng·h/mL; AUC(0-t) [2, 3]: 877 ng·h/mL; Cmax [2, 3]: 1900 ng/mL; MRT inf [2, 3]: 24 min; Tmax [2, 3]: 4.8 min; Vd [2, 3]: 0.45 L/kg; clearance [2, 3]: 19 mL/min/kg; half-life [2, 3]: 30 min; AUC(0-inf) [2, 4]: 1980 ng·h/mL; AUC(0-t) [2, 4]: 1960 ng·h/mL; Cmax [2, 4]: 1800 ng/mL; MRT inf [2, 4]: 82.2 min; Tmax [2, 4]: 19.8 min; half-life [2, 4]: 294 min

**Q.** With `CS(=O)(=O)c1ccc2c(c1)Oc1ccc(OCc3c(-c4c(Cl)cccc4Cl)noc3C3CC3)nc1CC2` [Example 32, 2-((5-cyclopropyl-3-(2,6-dichlorophenyl)isoxazol-4-yl)methoxy)-7-(methylsulfonyl)-10,11-dihydrobenzo[6,7]oxepino[3,2-b]pyridine] as the compound, how does the pEC50 [1] read?
**A.** 7.27

**Q.** Which results are given for `O=C(O)c1ccc2c(c1)C(=O)c1ccc(OCc3c(-c4c(Cl)cccc4Cl)noc3C3CC3)cc1CC2` [Example 2, 8-((5-cyclopropyl-3-(2,6-dichlorophenyl)isoxazol-4-yl)methoxy)-5-oxo-10,11-dihydro-5H-dibenzo[a,d][7]annulene-3-carboxylic acid]?
**A.** pEC50 [1]: 8.40; AUCINF ([2]; male SD rats, iv 1 mg/kg): 1210 ng·h/mL; AUClast ([2]; male SD rats, iv 1 mg/kg): 1180 ng·h/mL; Cl ([2]; male SD rats, iv 1 mg/kg): 14 mL/min/kg; Cmax ([2]; male SD rats, iv 1 mg/kg): 2560 ng/mL; MRTINF ([2]; male SD rats, iv 1 mg/kg): 63 min; T1/2 ([2]; male SD rats, iv 1 mg/kg): 109 min; Tmax ([2]; male SD rats, iv 1 mg/kg): 4.8 min; Vss ([2]; male SD rats, iv 1 mg/kg): 0.86 L/kg; AUCINF ([2]; male SD rats, po 5 mg/kg): 11300 ng·h/mL; AUClast ([2]; male SD rats, po 5 mg/kg): 11200 ng·h/mL; Cmax ([2]; male SD rats, po 5 mg/kg): 9970 ng/mL; MRTINF ([2]; male SD rats, po 5 mg/kg): 141 min; T1/2 ([2]; male SD rats, po 5 mg/kg): 250 min; Tmax ([2]; male SD rats, po 5 mg/kg): 19.8 min; F ([2]; male SD rats, po 5 mg/kg vs iv 1 mg/kg): 189.7%

**Q.** With `O=C(O)c1ccc2c(c1)C1(CC1)c1ccc(OCc3c(-c4c(Cl)cccc4Cl)noc3C3CC3)cc1CC2` [Example 9, 2′-((5-cyclopropyl-3-(2,6-dichlorophenyl)isoxazol-4-yl)methoxy)-10′,11′-dihydrospiro[cyclopropane-1,5′-dibenzo[a,d][7]annulene]-7′-carboxylic acid] as the compound, how does the pEC50 [1] read?
**A.** 7.42

**Q.** With `O=C(NCCS(=O)(=O)O)c1ccc2c(c1)Oc1ccc(OCc3c(-c4c(Cl)cccc4Cl)noc3C3CC3)nc1CC2` [Example 29, 2-(2-((5-cyclopropyl-3-(2,6-dichlorophenyl)isoxazol-4-yl)methoxy)-10,11-dihydrobenzo[6,7]oxepino[3,2-b]pyridine-7-carboxamido)ethanesulfonic acid] as the compound, how does the pEC50 [1] read?
**A.** 7.96

**Q.** With `O=C(O)c1ccc2c(c1)Oc1ccc(OCc3c(-c4c(Cl)cccc4Cl)noc3C3CC3)cc1SC2` [Example 6, 8-((5-cyclopropyl-3-(2,6-dichlorophenyl)isoxazol-4-yl)methoxy)-11H-dibenzo [b,f][1,4]oxathiepine-3-carboxylic acid] as the compound, how does the pEC50 [1] read?
**A.** 7.26

**Q.** With `O=C(O)c1ccc2c(c1)CCc1ccc(OCc3c(-c4c(Cl)cccc4Cl)noc3C3CC3)cc1O2` [Example 15, 7-((5-cyclopropyl-3-(2,6-dichlorophenyl)isoxazol-4-yl)methoxy)-10,11-dihydrodibenzo[b,f]oxepine-2-carboxylic acid] as the compound, how does the pEC50 [1] read?
**A.** 7.46

**Q.** With `CC(C)c1nnn(-c2c(Cl)cccc2Cl)c1COc1ccc2c(c1)CCc1ccc(C(=O)O)cc1C2=O` [Example 27, 8-((1-(2,6-dichlorophenyl)-4-isopropyl-1H-1,2,3-triazol-5-yl)methoxy)-5-oxo-10,11-dihydro-5H-dibenzo[a,d][7]annulene-3-carboxylic acid] as the compound, how does the pEC50 [1] read?
**A.** 7.92

**Q.** With `O=C(O)c1ccc2c(c1)Oc1ccc(OCc3c(-c4c(Cl)cccc4Cl)noc3C3CC3)nc1C=C2` [Example 30, 2-((5-cyclopropyl-3-(2,6-dichlorophenyl)isoxazol-4-yl)methoxy)benzo[6,7]oxepino[3,2-b]pyridine-7-carboxylic acid] as the compound, how does the pEC50 [1] read?
**A.** 7.57

**Q.** With `CC(C)c1cnn(-c2c(Cl)cccc2Cl)c1COc1ccc2c(n1)CCc1ccc(C(=O)O)cc1O2` [Example 17, 2-((1-(2,6-dichlorophenyl)-4-isopropyl-1H-pyrazol-5-yl)methoxy)-10,11-dihydrobenzo[6,7]oxepino[3,2-b]pyridine-7-carboxylic acid] as the compound, how does the pEC50 [1] read?
**A.** 7.64

**Q.** And the F ([2]; male, SD, rat, in vivo)?
**A.** 67.7%

**Q.** And the AUC(0-inf) [2, 3]?
**A.** 1840 ng·h/mL

**Q.** What about the AUC(0-t) [2, 3] of the same compound?
**A.** 1840 ng·h/mL

**Q.** What about the Cmax [2, 3] of the same compound?
**A.** 4280 ng/mL

**Q.** And the MRT inf [2, 3]?
**A.** 19.2 min

**Q.** What about the Tmax [2, 3] of the same compound?
**A.** 4.8 min

**Q.** What about the Vd [2, 3] of the same compound?
**A.** 0.89 L/kg

**Q.** And the clearance [2, 3]?
**A.** 50 mL/min/kg

**Q.** And the half-life [2, 3]?
**A.** 25.8 min

**Q.** What about the AUC(0-inf) [2, 4] of the same compound?
**A.** 6240 ng·h/mL

**Q.** What about the AUC(0-t) [2, 4] of the same compound?
**A.** 6230 ng·h/mL

**Q.** What about the Cmax [2, 4] of the same compound?
**A.** 5960 ng/mL

**Q.** And the MRT inf [2, 4]?
**A.** 50.4 min

**Q.** What about the Tmax [2, 4] of the same compound?
**A.** 19.8 min

**Q.** And the half-life [2, 4]?
**A.** 47.4 min
